Test results from paper PMC9250534, “Synthesis and direct assay of large macrocycle diversities by combinatorial late-stage modification at picomole scale” (Nature Communications, 2022).
Numbered stars: 1 amine (or outer) side, 2 acyl side, 3 side chain; on linkers, the order of the positions; unused ones are H or OH. Bridge positions count the residues as written; N and C are the ends. Square brackets hold non-standard residues; d marks the D form. Peptide text beside a SMILES is read from it. * marks the point of attachment. Isoorotoyl = O=C(c1c[nH]c(=O)[nH]c1=O)*; Nicotinoyl(6-OMe) = COc1ccc(C(=O)*)cn1; 2Thenoyl(5-Cl) = O=C(c1ccc(Cl)s1)*; Cysteamide = C(CS[*:3])N[*:1]; X3 = O=C(Cc1c[nH]c2ccccc12)*; 4Amb = NCc1ccc(C(=O)O)cc1; Isovaleryl = CC(C)CC(=O)*; Orn = NCCC[C@H](N)C(=O)O; Bz = O=C(c1ccccc1)*; βAla = NCCC(=O)O; Mpa = O=C(O)CCS

biological target: T1, thrombin (Homo sapiens, UniProt P00734); assay: Thrombin inhibition screen of crude macrocycle reactions (residual thrombin activity, fluorogenic substrate Z-Gly-Gly-Arg-AMC); format: biochemical; conditions: 10 µM macrocycle concentration; crude reactions, Library 1a-l; scaffold AA1-AA2-AA3 combined with 1-16 or '-'
T1 construct: consists of two polypeptide chains of 36 (light chain) and 259 amino acid
Procedure: As a proof-of-concept, we screened the macrocycle library for inhibitors against thrombin, which is the central blood coagulation protease and an important therapeutic target. We conducted the screen for thrombin-inhibiting macrocycles in 384-well reaction plates. Briefly, each well contained a unique macrocycle (10 μM), 5 μL of thrombin (2 nM final conc.), and subsequently, 5 µL of a fluorogenic substrate to measure the residual thrombin activity and the extent of protease inhibition.
The assays were performed in 384-well plates using Tris buffer at pH 7.4 (100 mM Tris-Cl, 150 mM NaCl, 10 mM MgCl2, 1 mM CaCl2, 0.1% w/v BSA, 0.01% v/v Triton-X100, and 0.6% v/v DMSO) using thrombin at a final concentration of 2 nM and the fluorogenic substrate Z-Gly-Gly-Arg-AMC at a final concentration of 50 μM. Thrombin (5 μL, 6 nM) in the Tris-Cl buffer described above was added to each peptide using a BioTek MultiFlo microplate dispenser, and incubated for 10 min at room temperature. […] Data was collected and exported using the Tecan Infinite M200 Pro instrument software. […] For the negative controls (20 wells containing DMSO but no macrocycle), an average slope was calculated. The percent of thrombin inhibition was calculated by dividing the slopes and multiplying the results by 100.

Row | percent residual thrombin activity [%] | Compound
1 | 104.653 | NC(=O)CC[C@@H]1NC(=O)[C@@H]2CCCN2C(=O)CCSSCCNC(=O)[C@H](CCCNC(=O)Cc2c[nH]c3ccccc23)NC1=O [B1-Q-D2/12] ([Mpa]PQ[Orn](X3)-Cysteamide; disulfide 1-C)
2 | 109.462 | O=C(NCCC[C@@H]1NC(=O)[C@H](CO)NC(=O)[C@@H]2CCCN2C(=O)CCSSCCNC1=O)c1ccccc1 [B1-S-D2/1] ([Mpa]PS[Orn](Bz)-Cysteamide; disulfide 1-C)
3 | 106.543 | CC(C)CC(=O)NCCC[C@@H]1NC(=O)[C@H](CO)NC(=O)[C@@H]2CCCN2C(=O)CCSSCCNC1=O [B1-S-D2/8] ([Mpa]PS[Orn](Isovaleryl)-Cysteamide; disulfide 1-C)
4 | 112.339 | O=C(NCCC[C@@H]1NC(=O)[C@H](CO)NC(=O)[C@@H]2CCCN2C(=O)CCSSCCNC1=O)c1c[nH]c(=O)[nH]c1=O [B1-S-D2/11] ([Mpa]PS[Orn](Isoorotoyl)-Cysteamide; disulfide 1-C)
5 | 96.3876 | O=C(NCCC[C@@H]1NC(=O)[C@H](CO)NC(=O)[C@@H]2CCCN2C(=O)CCSSCCNC1=O)c1ccc(Cl)s1 [B1-S-D2/14] ([Mpa]PS[Orn](2Thenoyl(5-Cl))-Cysteamide; disulfide 1-C)
6 | 110.704 | COc1ccc(C(=O)NCCCC[C@@H]2NC(=O)[C@@H](CO)NC(=O)[C@@H]3CCCN3C(=O)CCSSCCNC2=O)cn1 [B1-s-D1/10] ([Mpa]P[dS]K(Nicotinoyl(6-OMe))-Cysteamide; disulfide 1-C)
7 | 111.278 | O=C(Cc1c[nH]c2ccccc12)NCCCC[C@@H]1NC(=O)[C@@H](CO)NC(=O)[C@@H]2CCCN2C(=O)CCSSCCNC1=O [B1-s-D1/12] ([Mpa]P[dS]K(X3)-Cysteamide; disulfide 1-C)
8 | 113.487 | NCCCC[C@@H]1NC(=O)[C@@H](CO)NC(=O)[C@@H]2CCCN2C(=O)CCSSCCNC1=O [B1-s-D1/-] ([Mpa]P[dS]K-Cysteamide; disulfide 1-C)
9 | 108.892 | O=C(NCCC[C@@H]1NC(=O)[C@H](CO)NC(=O)[C@@H]2CCCN2C(=O)CCSSCCNC1=O)c1ccccc1 [B1-s-D2/1] ([Mpa]PS[Orn](Bz)-Cysteamide; disulfide 1-C)
10 | 104.868 | CC(C)CC(=O)NCCC[C@@H]1NC(=O)[C@H](CO)NC(=O)[C@@H]2CCCN2C(=O)CCSSCCNC1=O [B1-s-D2/8] ([Mpa]PS[Orn](Isovaleryl)-Cysteamide; disulfide 1-C)
11 | 111.409 | O=C(NCCC[C@@H]1NC(=O)[C@H](CO)NC(=O)[C@@H]2CCCN2C(=O)CCSSCCNC1=O)c1c[nH]c(=O)[nH]c1=O [B1-s-D2/11] ([Mpa]PS[Orn](Isoorotoyl)-Cysteamide; disulfide 1-C)
12 | 95.3682 | O=C(NCCC[C@@H]1NC(=O)[C@H](CO)NC(=O)[C@@H]2CCCN2C(=O)CCSSCCNC1=O)c1ccc(Cl)s1 [B1-s-D2/14] ([Mpa]PS[Orn](2Thenoyl(5-Cl))-Cysteamide; disulfide 1-C)
13 | 105.275 | COc1ccc(C(=O)NCCC[C@@H]2NC(=O)CCNC(=O)CCSSCCNC(=O)[C@H](Cc3ccc(O)cc3)NC2=O)cn1 [B2-D2-Y/10]
14 | 109.064 | O=C1CCSSCCNC(=O)[C@H](Cc2ccc(O)cc2)NC(=O)[C@H](CCCNC(=O)COc2ccccc2)NC(=O)CCN1 [B2-D2-Y/13]
15 | 116.586 | O=C1CCSSCCNC(=O)[C@H](Cc2ccc(O)cc2)NC(=O)[C@H](CCCNC(=O)c2ccco2)NC(=O)CCN1 [B2-D2-Y/16]
16 | 106.68 | CC(C)C[C@@H]1NC(=O)CCNC(=O)CCSSCCNC(=O)[C@H](CCCNC(=O)c2ccccc2)NC1=O [B2-L-D2/1] ([Mpa][βAla]L[Orn](Bz)-Cysteamide; disulfide 1-C)
17 | 112.903 | CC(C)C[C@@H]1NC(=O)CCNC(=O)CCSSCCNC(=O)[C@H](CCCNC(=O)c2cnccn2)NC1=O [B2-L-D2/2]

Row | percent residual thrombin activity [%] | Compound
18 | 110.801 | COc1ccc(C(=O)NCCC[C@@H]2NC(=O)[C@H](CC(C)C)NC(=O)CCNC(=O)CCSSCCNC2=O)cn1 [B2-L-D2/10]
19 | 112.783 | CC(C)C[C@@H]1NC(=O)CCNC(=O)CCSSCCNC(=O)[C@H](CCCNC(=O)c2c[nH]c(=O)[nH]c2=O)NC1=O [B2-L-D2/11]
20 | 111.509 | CC(C)C[C@@H]1NC(=O)CCNC(=O)CCSSCCNC(=O)[C@H](CCCNC(=O)c2ccco2)NC1=O [B2-L-D2/16]
21 | 113.32 | CC(C)C[C@@H]1NC(=O)CCNC(=O)CCSSCCNC(=O)[C@H](CCCN)NC1=O [B2-L-D2/-] ([Mpa][βAla]L[Orn]-Cysteamide; disulfide 1-C)
22 | 101.633 | O=C1CCSSCCNC(=O)[C@H](Cc2ccc(O)cc2)NC(=O)[C@H](CCCCNC(=O)c2c[nH]c(=O)cn2)NC(=O)c2ccc(cc2)CN1 [B3-D1-Y/9]
23 | 99.2373 | COc1ccc(C(=O)NCCCC[C@@H]2NC(=O)c3ccc(cc3)CNC(=O)CCSSCCNC(=O)[C@H](Cc3ccc(O)cc3)NC2=O)cn1 [B3-D1-Y/10]
24 | 107.476 | COc1ccc(C(=O)NCCCC[C@@H]2NC(=O)[C@H](Cc3cnc[nH]3)NC(=O)c3ccc(cc3)CNC(=O)CCSSCCNC2=O)cn1 [B3-H-D1/10]
25 | 112.941 | O=C1CCSSCCNC(=O)[C@H](CCCCNC(=O)c2c[nH]c(=O)[nH]c2=O)NC(=O)[C@H](Cc2c[nH]cn2)NC(=O)c2ccc(cc2)CN1 [B3-H-D1/11]
26 | 102.666 | O=C1CCSSCCNC(=O)[C@H](CCCCNC(=O)c2ccc(Cl)s2)NC(=O)[C@H](Cc2c[nH]cn2)NC(=O)c2ccc(cc2)CN1 [B3-H-D1/14]
27 | 107.22 | O=C1CCSSCCNC(=O)[C@H](CCCCNC(=O)c2ccco2)NC(=O)[C@H](Cc2cnc[nH]2)NC(=O)c2ccc(cc2)CN1 [B3-H-D1/16]
28 | 107.378 | CC(C)[C@@H]1NC(=O)c2ccc(cc2)CNC(=O)CCSSCCNC(=O)[C@H](CCCCNC(=O)c2c[nH]c(=O)cn2)NC1=O [B3-V-D1/9]
29 | 106.658 | COc1ccc(C(=O)NCCCC[C@@H]2NC(=O)[C@H](C(C)C)NC(=O)c3ccc(cc3)CNC(=O)CCSSCCNC2=O)cn1 [B3-V-D1/10]
30 | 107.146 | O=C1CCSSCCNC(=O)[C@H](CCCCNC(=O)c2ccccc2)NC(=O)[C@@H](Cc2ccc(O)cc2)NC(=O)c2ccc(cc2)CN1 [B3-y-D1/1] ([Mpa][4Amb][dY]K(Bz)-Cysteamide; disulfide 1-C)
31 | 112.065 | Cc1nnsc1C(=O)NCCCC[C@@H]1NC(=O)[C@@H](Cc2ccc(O)cc2)NC(=O)c2ccc(cc2)CNC(=O)CCSSCCNC1=O [B3-y-D1/15]
32 | 103.519 | O=C(COc1ccccc1)NCCCC[C@@H]1NC(=O)[C@H]2CCCN(C2)C(=O)CCSSCCNC(=O)[C@H](CO)NC1=O [B4-D1-S/13]
33 | 101.061 | O=C(NCCCC[C@@H]1NC(=O)[C@@H](Cc2c[nH]c3ccccc23)NC(=O)[C@H]2CCCN(C2)C(=O)CCSSCCNC1=O)c1ccccc1 [B4-W-D1/1]
34 | 98.2761 | CC(C)CC(=O)NCCCC[C@@H]1NC(=O)[C@@H](Cc2c[nH]c3ccccc23)NC(=O)[C@H]2CCCN(C2)C(=O)CCSSCCNC1=O [B4-W-D1/8]
